Consider two compounds from patent publication US7700786B2, “Pyrazole derivative, intermediate therefor, processes for producing these, and herbicide containing these as active ingredient” (Sagami Chemical Research Center, priority 2001, dated 2010).

Data set [1] has as its system Chenopodium album. The data set is described as follows: Herbicidal efficacy test by foliar treatment after germination under upland field condition. It is filed as in vivo. Conditions: dose 1 kg/ha, rated 1 to 5 on the 14th day after treatment. The source says:
(§1) A vat having an area of 5×10 cm^2 and a depth of 5 cm was filled with upland field soil, and seeds of Chenopodium album, Echinochloa crus-galli, Amaranthus viridis and Abutilon theophrasti were sown thereon and covered with soil by a depth of 0.5 cm. Water was sprayed as required to grow them for 14 days.

For data set [2], the system named is Amaranthus viridis. The description is as above. It is filed as in vivo. Conditions: dose 1 kg/ha, rated 1 to 5 on the 14th day after treatment.
Source text: as §1

Data set [3] concerns Echinochloa crus-galli. The data set is described as above. It is filed as in vivo. Conditions: dose 1 kg/ha, rated 1 to 5 on the 14th day after treatment.
Source text: as §1

The next data set has as its system sweet corn (Zea mays). The data set is described as follows: Injury to corn, soil treatment before germination under upland field condition. It is filed as in vivo. Conditions: dose 1 kg/ha; 21st day after treatment; ratings of 1 to 5. The source says:
(§2) A vat having an area of 5×10 cm^2 and a depth of 5 cm was filled with upland field soil, and seeds of Chenopodium album, Echinochloa crus-galli, Amaranthus viridis, Digitaria ciliaris and sweet corn (Zea mays) were sown thereon and covered with soil by a depth of 0.5 cm.

In data set [4] the test system is Chenopodium album. The data set is described as follows: Herbicidal efficacy test by soil treatment before germination under upland field condition. It is filed as in vivo. As to conditions: dose 1 kg/ha; 21st day after treatment; ratings of 1 to 5.
Source text: as §2

Data set [5] concerns Amaranthus viridis. Described as above. Conditions: dose 1 kg/ha; 21st day after treatment; ratings of 1 to 5. It is filed as in vivo.
Source text: as §2

Data set [6] relates to Echinochloa crus-galli. The description is as above. As to conditions: dose 1 kg/ha; 21st day after treatment; ratings of 1 to 5. It is filed as in vivo.
Source text: as §2

In the next data set the test system is Digitaria ciliaris. The description is as above. Conditions: dose 1 kg/ha; 21st day after treatment; ratings of 1 to 5. It is filed as in vivo.
Source text: as §2

The subject of data set [7] is annual broadleaf weeds such as Lindernia procumbens, Rotala indica and Elatine triandra. As to the kind of experiment: Herbicidal efficacy test by pre-emergence treatment under submergence condition. It is filed as in vivo. Conditions: 15th day after treatment, ratings of 1 to 5.
Source text: (§3) A 1/10,000-are pot was filled with paddy field soil, and, after plowing, seeds of Echinochloa oryzicola, Cyperus difformis, Monochoria vaginalis, Scirpus juncoides, Eleocharis acicularis and other annual broadleaf weeds such as Lindernia procumbens, Rotala indica and Elatine triandra were sown. Rice (oryza sativa) seedlings (cultiver “Koshihikari”) at a 2.5-leaf stage were transplanted and kept under a submergence condition. After one day, the wettable powder or emulsifiable concentrate of the compound of the present invention, prepared according to Preparation Example, was diluted and dropped on a water surface at a predetermined dose.
For another data set, the system named is Cyperus difformis. The description is as above. It is filed as in vivo. As to conditions: 15th day after treatment, ratings of 1 to 5.
The subject of the next data set is Echinochloa oryzicola. The data set is described as above. As to conditions: 15th day after treatment, ratings of 1 to 5. It is filed as in vivo.
Another data set deals with Eleocharis acicularis. Described as above. Type of data set: in vivo. Conditions: 15th day after treatment, ratings of 1 to 5.
The test system of a further data set is Scirpus juncoides. The description is as above. Conditions: 15th day after treatment, ratings of 1 to 5. It is filed as in vivo.
A further data set concerns Abutilon theophrasti. The data set is described as follows: Herbicidal efficacy test by foliar treatment after germination under upland field condition. It is filed as in vivo. As to conditions: Dc: Digitaria ciliaris (table footnote; method names Abutilon theophrasti), dose 1 kg/ha, rated 1 to 5 on the 14th day after treatment.
The subject of data set [8] is Rice (oryza sativa) seedlings (cultiver Koshihikari). Conditions: in vivo.
Source text: as §3
The next data set deals with Monochoria vaginalis. The data set is described as follows: Herbicidal efficacy test by pre-emergence treatment under submergence condition. Type of data set: in vivo. As to conditions: 15th day after treatment, ratings of 1 to 5.
Throughout, for Herbicidal activity Av: key: 1 shows no influence; 5 shows complete die.
Throughout, for Herbicidal activity Ca: key: 1 shows no influence; 5 shows complete die.
Throughout, for Herbicidal efficacy Cd: key: 1 shows no influence; 5 shows complete die.
Throughout, for Herbicidal efficacy Ea: key: 1 shows no influence; 5 shows complete die.
Throughout, for Herbicidal efficacy Mv: key: 1 shows no influence; 5 shows complete die.

Source text for Echinochloa oryzicola: as §3
Source text for Eleocharis acicularis: as §3
Source text for Monochoria vaginalis: as §3
Source text for Scirpus juncoides: as §3

On to `Cc1cc(Oc2c(Cl)cc(C(F)(F)F)cc2Cl)nn1C(=O)NCC1CCCO1` (centres unmarked) [Compound 3-183], for which the “Herbicidal activity Ca” value in the data set on Chenopodium album [1] and in the data set with Chenopodium album [4] was 5 in each case. Moreover, the “Herbicidal activity Av” value in the data set with Amaranthus viridis [2] and in the data set with Amaranthus viridis [5] was 5 throughout. The “Herbicidal activity Ec” value with Echinochloa crus-galli [3] was determined as 5; with Echinochloa crus-galli [6] it was 3. In the data set with sweet corn (Zea mays), the “Injury Zm” value came to 1. For the same compound, the “Herbicidal activity Dc” value is recorded as 4 with Digitaria ciliaris and 5 in the data set with Abutilon theophrasti. Besides, the “Herbicidal efficacy Blw” value in data set [7] (dose 0.5 kg/ha) and in [7] (dose 1 kg/ha) was 5 in each case. For the same compound, the “Herbicidal efficacy Cd” value with Cyperus difformis (dose 0.5 kg/ha) and in the data set with Cyperus difformis (dose 1 kg/ha) was 5 throughout. Also, the “Herbicidal efficacy Eo” value with Echinochloa oryzicola (dose 0.5 kg/ha) and with Echinochloa oryzicola (dose 1 kg/ha) was 5 throughout. In addition, the “Herbicidal efficacy Ea” value in the data set with Eleocharis acicularis (dose 0.5 kg/ha) and with Eleocharis acicularis (dose 1 kg/ha) was 5 in each case. The “Herbicidal efficacy Sj” value in the data set with Scirpus juncoides (dose 0.5 kg/ha) and in the data set on Scirpus juncoides (dose 1 kg/ha) was 5 each time. In addition, the “Injury Os” value in data set [8] is reported as 2. For the same compound, the “Herbicidal efficacy Mv” value in the data set with Monochoria vaginalis (dose 0.5 kg/ha) and in the data set on Monochoria vaginalis (dose 1 kg/ha) was 5 each time.
Regarding `Cc1cc(Oc2c(Cl)cc(C(F)(F)F)cc2Cl)nn1C(N)=O` [Compound 3-3], the “Herbicidal activity Ca” value in the data set on Chenopodium album [1] and in the data set with Chenopodium album [4] was 5 throughout. In addition, the “Herbicidal activity Av” value in the data set with Amaranthus viridis [2] and with Amaranthus viridis [5] was 5 in each case. Further, the “Herbicidal activity Ec” value came out at 4.5 in the data set with Echinochloa crus-galli [3] and 3.5 with Echinochloa crus-galli [6]. Further, the “Injury Zm” value with sweet corn (Zea mays) came out at 1.5. Besides, the “Herbicidal activity Dc” value in the data set on Digitaria ciliaris is 4.5; with Abutilon theophrasti it was 5. Further, the “Herbicidal efficacy Blw” value in [7] (dose 0.5 kg/ha) and in data set [7] (dose 1 kg/ha) was 5 throughout. Also, the “Herbicidal efficacy Cd” value in the data set with Cyperus difformis (dose 0.5 kg/ha) and in the data set with Cyperus difformis (dose 1 kg/ha) was 5 throughout. Moreover, the “Herbicidal efficacy Eo” value in the data set on Echinochloa oryzicola (dose 0.5 kg/ha) and with Echinochloa oryzicola (dose 1 kg/ha) was 5 throughout. For the same compound, the “Herbicidal efficacy Ea” value in the data set on Eleocharis acicularis (dose 0.5 kg/ha) and in the data set on Eleocharis acicularis (dose 1 kg/ha) was 5 each time. The “Herbicidal efficacy Sj” value in the data set on Scirpus juncoides (dose 0.5 kg/ha) and with Scirpus juncoides (dose 1 kg/ha) was 5 throughout. Moreover, the “Injury Os” value in data set [8] is on record as 1.5. The “Herbicidal efficacy Mv” value in the data set with Monochoria vaginalis (dose 0.5 kg/ha) and in the data set on Monochoria vaginalis (dose 1 kg/ha) was 5 each time.
